Literature values in US5780243A, “Methods for the quantitative analysis of organic compounds” (Thaco Research, Ltd., priority 1996, dated 1998).

solubility in organic solvents: virtual insolubility
Structure (SMILES): CNC1C(O)C(NC)C2OC3(O)C(=O)CC(C)OC3OC2C1O (stereo not shown) [spectinomycin, decahydro-4a,7,9-trihydroxy-2-methyl-6,8-bis(methylamino)-4H-pyrano[2,3-b][1,4]benzodioxin-4-one]
